{"source": "patent US20250090823A1", "about": "“MICRONEEDLE PATCH FOR ENHANCING ACCUMULATION OF PROTOPORPHYRIN IX IN SOLID TUMOR AND PREPARATION METHOD THEREFOR” (SHENZHEN UNIVERSITY, priority 2022, published 2025)", "key": {"[1]": {"test_system": "subcutaneous U87MG glioblastoma", "test": "Tumor-volume inhibition after 3 repeated PDT, subcutaneous U87MG glioblastoma model", "type": "in vivo, mouse", "conditions": "50 mg/kg CCPCA NPs, 3.4 mg/kg 5-ALA, 635 nm laser 10 min at 6, 12, 24 h, 14 days", "procedure": "A specific characterization method is as follows: 20 U87MG model tumor mice with a tumor size of 100 mm^3 are equally divided into 4 experimental groups, namely the MN (+) group with blank microneedle and irradiated with laser, the 5-ALA i.v (+) group with tail intravenous injected with 5-ALA and irradiated with laser, the MN-5-ALA (+) group with 5-ALA microneedle delivery and irradiated with laser, the MN-CCPCA (+) group with transdermal microneedle loaded with 5-ALA and CAT using nanoparticles and irradiated with lase. The doses administered are 50 mg/kg of CCPCA NPs and 3.4 mg/kg of 5-ALA. The mice in the laser treatment group are irradiated with a laser with a wavelength of 635 nm for 10 minutes (200 mW/cm^2) at 6, 12, and 24 h, respectively. The volume of mouse tumor in each group on different days (0, 2, 4, 6, 8, 10, 12, 14) is measured by a vernier caliper."}, "[2]": {"test_system": "4T1 breast cancer subcutaneous tumor", "test": "Tumor-volume inhibition after PDT, 4T1 breast cancer subcutaneous tumor model", "type": "in vivo, mouse", "conditions": "50 mg/kg CCPCA NPs, 3.4 mg/kg 5-ALA, 635 nm laser 10 min at 12, 24, 36 h, 14 days", "source_text": "A specific characterization method is as follows: 20 4T1 model tumor mice with a tumor size of 100 mm^3 are equally divided into 4 experimental groups, namely the MN (+) group with blank microneedle and irradiated with laser, the 5-ALA i.v (+) group with tail intravenous injected with 5-ALA and irradiated with laser, the MN-5-ALA (+) group with 5-ALA microneedle delivery and irradiated with laser, the MN-CCPCA (+) group with transdermal microneedle loaded with 5-ALA and CAT using nanoparticles and irradiated with lase. The mice in the laser treatment group are irradiated with a laser with a wavelength of 635 nm for 10 minutes (200 mW/cm^2) at 12, 24, and 36 h, respectively. The doses administered are 50 mg/kg of CCPCA NPs and 3.4 mg/kg of 5-ALA. The volume of mouse tumor in each group on different days (0, 2, 4, 6, 8, 10, 12, 14) is measured by a vernier caliper."}, "[3]": {"test_system": "A375 melanoma cells", "test": "PpIX accumulation (mass) generated in A375 tumor cell by different nanoparticles", "type": "cell-based", "conditions": "same concentration of 5-ALA (10.8 μg mL^−1)", "from_the_text": "The biological effects of MN-CCPCA in accumulating PpIX in a cell and an in-vivo tumor are studied."}, "[4]": {"test_system": "A375 tumor cell", "test": "Dynamic PpIX fluorescence in A375 tumor cell by high-content fluorescence microscopy", "type": "cell-based", "conditions": "equal amount of 5-ALA, time after hatching (incubation)", "from_the_text": "The dynamic fluorescence value of PpIX generated by an in-vivo cell is monitored in real time by high-content fluorescence microscopy."}, "[5]": {"conditions": "background statement; cited from earlier work"}}, "data": [{"smiles": "NCC(=O)CCC(=O)O", "note": "[5-ALA, 5-aminolevulinic acid]", "values": [{"measurement": "tumor growth inhibition rate", "setting": "[1]", "value": 19.1, "unit": "%"}, {"measurement": "tumor growth inhibition rate", "setting": "[2]", "value": 27.5, "unit": "%"}, {"measurement": "intracellular PpIX content", "setting": "[3]", "value": "35.1±3.3", "unit": "ng/10^6 cells"}, {"measurement": "time at which PpIX concentration/intensity in the cell reaches the maximum", "setting": "[4]", "value": 6, "unit": "h"}]}, {"smiles": "C=CC1=C(C)c2cc3[nH]c(cc4nc(cc5[nH]c(cc1n2)c(C)c5CCC(=O)O)C(CCC(=O)O)=C4C)c(C)c3C=C", "note": "[PpIX, Protoporphyrin IX]", "values": [{"measurement": "time of rapid clearance of PpIX in vivo", "setting": "[5]", "value": "≤ 12", "unit": "h"}, {"measurement": "time to highest peak of PpIX synthesis in vivo", "setting": "[5]", "value": "about 4 hours"}]}]}
